The record followed here is ChEMBL document CHEMBL1914329, “2D MI-DRAGON: a new predictor for protein-ligands interactions and theoretic-experimental studies of US FDA drug-target network, oxoisoaporphine inhibitors for MAO-A and human parasite proteins” (Eur J Med Chem, 2011).

Usually pIC50 stands for the negative decadic logarithm of the IC50, by convention in mol/L.

The structures appear in SMILES notation. pIC50: −log10 of the molar value. Where only a bound is given, the exact number is not on record here.

For one data set, the species on record is Homo sapiens. Kind of data set: Selectivity index, ratio of IC50 for human recombinant MAO-B to IC50 for human recombinant MAO-A.
Data set [1] has as its target T1, Amine oxidase [flavin-containing] B (Homo sapiens, UniProt P27338).
T1 sequence (P27338 whole entry): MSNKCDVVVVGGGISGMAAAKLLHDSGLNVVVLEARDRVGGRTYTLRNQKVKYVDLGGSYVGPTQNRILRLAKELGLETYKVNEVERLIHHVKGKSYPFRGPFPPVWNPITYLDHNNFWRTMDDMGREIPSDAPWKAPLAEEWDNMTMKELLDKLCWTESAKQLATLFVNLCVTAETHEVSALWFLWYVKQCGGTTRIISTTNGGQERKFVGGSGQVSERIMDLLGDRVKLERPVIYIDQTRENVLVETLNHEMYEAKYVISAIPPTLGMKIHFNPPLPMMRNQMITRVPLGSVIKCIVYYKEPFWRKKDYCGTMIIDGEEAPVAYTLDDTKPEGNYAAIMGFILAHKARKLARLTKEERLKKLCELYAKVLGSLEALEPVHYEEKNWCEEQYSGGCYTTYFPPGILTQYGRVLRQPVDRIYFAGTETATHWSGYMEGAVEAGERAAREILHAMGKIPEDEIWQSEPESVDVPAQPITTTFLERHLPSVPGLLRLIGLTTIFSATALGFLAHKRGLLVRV
Kind of data set: biochemical. Type of data set: cell-based, BTI-TN-5B1-4.
Description: Inhibition of human recombinant MAOB expressed in baculovirus infected BTI-TN-5B1-4 insect cells assessed as hydrogen peroxide production from p-tyramine after 15 mins by amplex red assay

For data set [2], the target named is T2, Amine oxidase [flavin-containing] A (Homo sapiens, UniProt P21397).
T2 sequence (P21397 whole entry): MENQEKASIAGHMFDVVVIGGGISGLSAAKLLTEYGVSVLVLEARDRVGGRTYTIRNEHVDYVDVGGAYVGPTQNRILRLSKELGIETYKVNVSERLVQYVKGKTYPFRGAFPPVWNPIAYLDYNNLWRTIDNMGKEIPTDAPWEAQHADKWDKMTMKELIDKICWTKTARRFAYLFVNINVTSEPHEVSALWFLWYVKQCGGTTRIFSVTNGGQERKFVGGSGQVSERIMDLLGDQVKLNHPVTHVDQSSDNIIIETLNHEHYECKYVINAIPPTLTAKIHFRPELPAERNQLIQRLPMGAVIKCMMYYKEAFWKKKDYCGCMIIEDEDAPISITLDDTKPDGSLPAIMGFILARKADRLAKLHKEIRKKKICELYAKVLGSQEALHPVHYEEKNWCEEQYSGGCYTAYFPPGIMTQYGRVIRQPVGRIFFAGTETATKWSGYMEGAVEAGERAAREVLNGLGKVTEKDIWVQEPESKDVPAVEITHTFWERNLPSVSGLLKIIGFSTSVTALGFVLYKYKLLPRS
Kind of data set: Inhibition of human recombinant MAOA expressed in baculovirus infected BTI-TN-5B1-4 insect cells assessed as hydrogen peroxide production from p-tyramine after 15 mins by amplex red assay.

Data set [3] addresses T1, Amine oxidase [flavin-containing] B. Kind of data set: Inhibition of human recombinant MAOB expressed in baculovirus infected BTI-TN-5B1-4 insect cells assessed as hydrogen peroxide production from p-tyramine at 1 mM after 15 mins by amplex red assay. As to conditions: bti-tn-5b1-4, 0.25 h, 1000 µM; call rule not given here.

For the compound `COC1=Cc2ccnc3c2c(cc2ccccc23)C1=O`, the Ratio IC50 in the data set filed under Homo sapiens is greater than 7690. Moreover, the pIC50 is less than 4.00 in data set [1] and 7.89 in data set [2].
Compound `COc1cc2c3c(nccc3c1)-c1ccccc1C2=O` gave a pIC50 in data set [1] of less than 4.00.
`COc1cc2ccnc3c2c(c1O)C(=O)c1ccccc1-3`: in the data set listed under Homo sapiens, the Ratio IC50 is greater than 81. In addition, the pIC50 in data set [1] is less than 4.00; in data set [2], 5.91.
The matching figures for `COc1cc2c3c(c1)C(=O)C1=C(CCCC1)C3=NCC2`: greater than 24, less than 4.30 and 5.67.
For `O=C1c2ccccc2-c2nccc3cc(O)cc1c23`, the Ratio IC50 in the data set filed under Homo sapiens was greater than 2860. Further, the values for the pIC50 in data set [1] and in data set [2] were less than 4.00 and 7.46, respectively.
On to `O=C(NCCN1CCOCC1)c1ccc(Cl)cc1` [MOCLOBEMIDE], for which the “inhibition (INH)” value in data set [3] was “Not Active”.
`COc1cc2c3c(c1)C(=O)c1ccccc1C3=NCC2`: the Ratio IC50 in the data set filed under Homo sapiens is greater than 7140. The pIC50 in data set [1] is less than 4.00; in data set [2], 7.85.
In the case of `COc1cc2c3c(c1O)C(=O)c1ccccc1C3=NCC2`, the Ratio IC50 in the data set filed under Homo sapiens was greater than 2270. The figures for the pIC50 in data set [1] and in data set [2] were less than 4.00 and 7.36, respectively.
As to `O=C1c2ccccc2C2=NCCc3cccc1c32`, the Ratio IC50 in the data set listed under Homo sapiens is greater than 3.7. Besides, the results for the pIC50 in data set [1] and in data set [2] were less than 4.00 and 4.56, respectively.
As for `O=C1c2ccccc2-c2nccc3cccc1c23`, the Ratio IC50 in the data set listed under Homo sapiens is greater than 139. Further, the values for the pIC50 in data set [1] and in data set [2] were less than 4.00 and 6.14, respectively.
Take `COc1cc2c3c(c1)C(O)c1ccccc1C3NCC2` (centres undefined): the Ratio IC50 in the data set filed under Homo sapiens is greater than 5.1. Moreover, the pIC50 in data set [1] is less than 4.30; in data set [2], 5.01.
